Results: US11555026B2, “AHR inhibitors and uses thereof” (Ikena Oncology, Inc., priority 2017, dated 2023)

molecular target: T1, AHR (UniProt P35869); assay: DRE-Luciferase Reporter Assay (Alternate Method, Example 1B); format: cell-based; parameters: IC50; other: alternate method: compound and agonist added at plating or after overnight incubation; murine (Hepa1-6, He); conditions: alternate method: compound and agonist added at plating or after overnight incubation; murine (Hepa1-6, Hepa-1c1c7) or human (HepG2) DRE-luciferase reporter cells, cell line used not stated
T1 sequence (P35869 1-848): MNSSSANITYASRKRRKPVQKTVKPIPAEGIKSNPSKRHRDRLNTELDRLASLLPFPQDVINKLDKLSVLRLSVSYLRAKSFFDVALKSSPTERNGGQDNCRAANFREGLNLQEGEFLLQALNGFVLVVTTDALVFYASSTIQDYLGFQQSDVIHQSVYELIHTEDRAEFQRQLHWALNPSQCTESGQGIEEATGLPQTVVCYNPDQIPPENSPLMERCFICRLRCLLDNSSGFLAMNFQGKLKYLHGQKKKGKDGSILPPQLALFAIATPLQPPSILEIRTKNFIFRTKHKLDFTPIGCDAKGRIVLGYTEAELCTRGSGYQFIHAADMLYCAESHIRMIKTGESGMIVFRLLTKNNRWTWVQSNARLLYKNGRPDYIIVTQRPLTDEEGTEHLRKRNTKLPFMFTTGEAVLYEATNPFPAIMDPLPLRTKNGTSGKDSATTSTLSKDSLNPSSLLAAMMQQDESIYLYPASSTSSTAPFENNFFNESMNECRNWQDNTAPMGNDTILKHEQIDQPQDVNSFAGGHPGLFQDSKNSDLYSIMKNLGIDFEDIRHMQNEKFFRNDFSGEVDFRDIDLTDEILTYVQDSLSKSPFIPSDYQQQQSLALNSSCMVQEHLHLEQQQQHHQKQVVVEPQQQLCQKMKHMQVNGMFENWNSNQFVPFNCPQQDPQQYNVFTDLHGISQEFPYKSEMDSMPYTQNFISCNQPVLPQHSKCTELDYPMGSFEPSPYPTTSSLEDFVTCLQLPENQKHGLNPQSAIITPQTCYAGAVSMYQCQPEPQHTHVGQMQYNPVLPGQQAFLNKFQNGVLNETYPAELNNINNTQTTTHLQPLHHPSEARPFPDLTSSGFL
Experimental: AHR binds to Dioxin Responsive Elements (DRE) upstream of genes that it activates. One measure of AHR activity is activation of a reporter gene, such as luciferase, downstream of one or multiple DRE elements. Luciferase activity will reflect activation and inhibition of AHR in the cells expressing his reporter.
Murine Hepa1-6 or Hepa-1c1c7 or other murine cell line with a DRE-luciferase reporter either stably or transiently transfected were plated in media in plates (96-well, 384-well or other plates) and incubated overnight at 37° C. in a CO2 incubator or compound and agonist were added at the time of plating. Likewise, human HepG2 or other human cell line with a DRE-luciferase reporter either stably or transiently transfected were plated in media in plates (96-well, 384-well or other plates) and incubated overnight at 37° C. in a CO2 incubator or compound and agonist were added at the time of plating.
At the time that cells are plated or following incubation overnight, an AHR activating ligand, such as TCDD, kynurenine, ITE (2-(1H-indole-3-ylcarbonyl)-4-thiazolecarboxylic methyl ester), VAF347, BNF (beta-naphthoflavone), FICZ (6-formylindolo(3,2-b) carbazole or other AHR ligands, was added with or without AHR antagonist.
Cells were incubated for 4, 15 or 24 hours or another time point and then lysed for determination of luciferase activity as a read-out of the AHR activation or inhibition. Luciferase was measured with a commercial kit such as the Promega Luciferase kit or any kit or reagents that provide the luciferin substrate for measuring luciferase activity. The level of luciferase with only activating ligand added was the maximum signal while the luciferase with no ligand was the minimum signal. IC50 values were determined as the concentration which inhibits half of the luciferase activity.

Row | Structure (SMILES) | IC50 [nM]
1 | Cc1cc(C#CC2CCCCC2)ccc1NC(=O)c1ccnn1C [I-54, N-[4-(2-Cyclohexylethynyl)-2-methyl-phenyl]-2-methyl-pyrazole-3-carboxamide] | > 1500
2 | Cc1cc(C#Cc2ccncc2)ccc1NC(=O)c1ccnn1C [I-55, 2-Methyl-N-[2-methyl-4-[2-(4-pyridyl)ethynyl]phenyl]pyrazole-3-carboxamide] | > 1500
3 | Cc1cc(C#Cc2cccnc2)ccc1NC(=O)c1ccnn1C [I-56, 2-Methyl-N-[2-methyl-4-[2-(3-pyridyl)ethynyl]phenyl]pyrazole-3-carboxamide] | > 1500
4 | Cc1cc(C#CC2CCNCC2)ccc1NC(=O)c1ccnn1C [I-57, 2-Methyl-N-[2-methyl-4-[2-(4-piperidyl)ethynyl]phenyl]pyrazole-3-carboxamide] | > 1500
5 | Cc1cc(C#Cc2ccccn2)ccc1NC(=O)c1ccnn1C [I-58, 2-Methyl-N-[2-methyl-4-[2-(2-pyridyl)ethynyl]phenyl]pyrazole-3-carboxamide] | > 1500
6 | Cn1nccc1C(=O)Nc1ccc(C#Cc2ccccc2)c2c1OCO2 [I-59, 2-Methyl-N-[7-(2-phenylethynyl)-1,3-benzodioxol-4-yl]pyrazole-3-carboxamide] | > 1500
7 | COc1cc(C#Cc2ccccc2)ccc1NC(=O)c1ccnn1C [I-60, N-[2-Methoxy-4-(2-phenylethynyl)phenyl]-2-methyl-pyrazole-3-carboxamide] | > 1500
8 | CC#Cc1ccc(NC(=O)c2ccnn2C)c(C)c1 [I-61, 2-methyl-N-(2-methyl-4-prop-1-ynyl-phenyl)pyrazole-3-carboxamide] | > 1500
9 | Cn1nccc1C(=O)Nc1ccc(C#Cc2ccccc2)cc1C(F)(F)F [I-62] | > 1500
10 | Cn1nccc1C(=O)Nc1ccc(C#Cc2ccccc2)cc1 [I-63, 2-Methyl-N-[4-(2-phenylethynyl)phenyl]pyrazole-3-carboxamide] | > 1500
11 | COc1ccccc1C#Cc1ccc(NC(=O)c2ccnn2C)c(C)c1 [I-64] | > 1500
12 | Cc1c(NC(=O)c2ccnn2C)ccc2nc(-c3ccccc3)ccc12 [I-68] | > 1500
13 | Cc1ccccc1-c1cnc2ccc(NC(=O)c3ccnn3C)c(C)c2c1 [I-69] | > 1500
14 | Cc1cc(C2CC2c2ccccc2)ccc1NC(=O)c1ccnn1C (stereo not drawn) [I-71] | > 1500
15 | Cc1ccccc1-c1ccc2c(C)c(NC(=O)c3ccnn3C)ccc2n1 [I-72] | > 1500
16 | Cc1ccccc1/C=C/c1ccc(C(=O)Nc2ccnn2C)c(C)c1 [I-73] | > 1500
17 | Cc1cc(/N=N/c2cccc3cccnc23)ccc1NC(=O)c1ccnn1C [I-74] | > 1500
18 | CC(C)n1nccc1C(=O)Nc1ccc2cc(-c3ccccc3)cnc2c1 [I-76, 2-Isopropyl-N-(3-phenyl-7-quinolyl)pyrazole-3-carboxamide] | > 1500
19 | Cn1nccc1C(=O)Nc1ccc2c(=O)n(-c3ccccc3)cnc2c1 [I-77, 2-Methyl-N-(4-oxo-3-phenyl-quinazolin-7-yl)pyrazole-3-carboxamide] | > 1500
20 | Cn1cncc1C(=O)Nc1ccc2cc(-c3ccccc3)cnc2c1 [I-79, 3-Methyl-N-(3-phenyl-7-quinolyl)imidazole-4-carboxamide] | > 1500
21 | Cn1nccc1C(=O)Nc1ccc2cc(-c3ccc(N4CCOCC4)cc3)cnc2c1 [I-80, 2-Methyl-N-[3-(4-morpholinophenyl)-7-quinolyl]pyrazole-3-carboxamide] | > 1500
22 | Cn1nccc1C(=O)Nc1ccc2cc(-c3ccccc3N3CCOCC3)cnc2c1 [I-83, 2-Methyl-N-[3-(2-morpholinophenyl)-7-quinolyl]pyrazole-3-carboxamide] | > 1500
23 | Cn1nccc1C(=O)Nc1ccc2cc(-c3cccc(N4CCOCC4)c3)cnc2c1 [I-85, 2-Methyl-N-[3-(3-morpholinophenyl)-7-quinolyl]pyrazole-3-carboxamide] | > 1500
24 | Cn1nccc1C(=O)Nc1ccc2cc(-c3ccc(O)cc3)cnc2c1 [I-86, N-[3-(4-Hydroxyphenyl)-7-quinolyl]-2-methyl-pyrazole-3-carboxamide] | > 1500
25 | Cn1nccc1C(=O)Nc1ccc2cc(-c3ccc(C(F)(F)F)cc3)cnc2c1 [I-87, 2-Methyl-N-[3-[4-(trifluoromethyl)phenyl]-7-quinolyl]pyrazole-3-carboxamide] | > 1500
26 | Cn1nccc1C(=O)Nc1ccc2cc(-c3ccccc3C(F)(F)F)cnc2c1 [I-88, 2-Methyl-N-[3-[2-(trifluoromethyl)phenyl]-7-quinolyl]pyrazole-3-carboxamide] | > 1500

More lines, now with the values ahead:

Row | IC50 [nM] | Structure (SMILES)
27 | < 500 | Cn1nccc1C(=O)Nc1ccc2cc(-c3nccs3)cnc2c1 [I-44, 2-Methyl-N-(3-thiazol-2-yl-7-quinolyl)pyrazole-3-carboxamide]
28 | 500 to 1000 | Cn1nccc1C(=O)Nc1ccc2cc(-c3ncco3)cnc2c1 [I-45, 2-Methyl-N-(3-oxazol-2-yl-7-quinolyl)pyrazole-3-carboxamide]
29 | < 500 | Cn1nccc1C(=O)Nc1ccc2cc(-c3cccs3)cnc2c1 [I-46, 2-Methyl-N-[3-(2-thienyl)-7-quinolyl]pyrazole-3-carboxamide]
30 | > 1500 | CC(=O)Nc1ccc2cc(-c3ccccc3)cnc2c1 [I-47, N-(3-Phenyl-7-quinolyl)acetamide]
31 | < 500 | Cn1nccc1C(=O)Nc1ccc2cc(-c3ccsc3)cnc2c1 [I-48, 2-Methyl-N-[3-(3-thienyl)-7-quinolyl]pyrazole-3-carboxamide]
32 | > 1500 | Cn1nccc1C(=O)Nc1ccc2cc(C3CCCCC3)cnc2c1 [I-49, N-(3-Cyclohexyl-7-quinolyl)-2-methyl-pyrazole-3-carboxamide]
33 | > 1500 | Cn1nccc1C(=O)Nc1ccc2cccnc2c1 [I-50, 2-Methyl-N-(7-quinolyl)pyrazole-3-carboxamide]
34 | < 500 | Cc1ccccc1-c1cnc2cc(NC(=O)c3ccnn3C)ccc2c1 [I-51, 2-Methyl-N-[3-(o-tolyl)-7-quinolyl]pyrazole-3-carboxamide]
35 | > 1500 | Cc1ccccc1-c1ccc2cc(NC(=O)c3ccnn3C)ccc2c1 [I-52, 2-Methyl-N-[6-(o-tolyl)-2-naphthyl]pyrazole-3-carboxamide]
36 | > 1500 | Cc1cc(C#Cc2cccc3c2OCO3)ccc1NC(=O)c1ccnn1C [I-53, N-[4-[2-(1,3-Benzodioxol-4-yl)ethynyl]-2-methyl-phenyl]-2-methyl-pyrazole-3-carboxamide]
37 | 500 to 1000 | Cn1nccc1C(=O)Nc1ccc2nc(-c3ccccc3)cnc2c1 [I-65]
38 | 500 to 1000 | Cc1cc(/C=C/c2ccccc2)ccc1N(C)C(=O)c1ccnn1C [I-66]
39 | 500 to 1000 | Cn1nccc1C(=O)Nc1cnc2cc(-c3ccccc3)ccc2c1 [I-67]
40 | < 500 | Cn1nccc1C(=O)Nc1ccc2cc(-c3ccccc3)cnc2c1 [I-70]
41 | 500 to 1000 | Cc1cc(/N=N/c2cccc3ccccc23)ccc1NC(=O)c1ccnn1C [I-75]
42 | 500 to 1000 | O=C(Nc1ccc2cc(-c3ccccc3)cnc2c1)c1ccn[nH]1 [I-78, N-(3-Phenyl-7-quinolyl)-1H-pyrazole-5-carboxamide]
43 | 1000 to 1500 | Cn1nccc1C(=O)Nc1ccc2cc(-c3ccccc3O)cnc2c1 [I-81, N-[3-(2-Hydroxyphenyl)-7-quinolyl]-2-methyl-pyrazole-3-carboxamide]
44 | 1000 to 1500 | Cn1nccc1C(=O)Nc1ccc2cc(-c3cccc(O)c3)cnc2c1 [I-82, N-[3-(3-Hydroxyphenyl)-7-quinolyl]-2-methyl-pyrazole-3-carboxamide]
45 | < 500 | Cn1nccc1C(=O)Nc1ccc2cc(-c3cccc(C(F)(F)F)c3)cnc2c1 [I-84, 2-Methyl-N-[3-[3-(trifluoromethyl)phenyl]-7-quinolyl]pyrazole-3-carboxamide]
